Experiments:
liver (LV) = test: Whole organ transcriptome (GeneChip microarray) of liver 6 h after adjuvant administration: sDEGs, hierarchical clustering; assay type: in vivo, C57BL/6 mice; conditions: liver; for adjuvant group (cluster) in LV: key: G1 (interferon signaling); G2 (metabolism of lipids and lipoproteins); G3 (response to stress); G4 (response to wounding); G5 (phosphate-containing compound metabolic process); G6 (phagosome)
[1] = system: adjuvant-associated biological themes in LV, SP, LN
Excerpt: A defined sets of genes were selected according to specified criteria (e.g., FC, PA-call, threshold values). Their functional enrichment values were then obtained from TargetMine (Chen, Y. A., Tripathi, L. P. & Mizuguchi, K. PloS one 6, e17844 (2011)) (http://targetmine.mizuguchilab.org/) using the API interface. The following resources were used throughout the analysis via TargetMine Interface (GO, GOSlim, Integrated Pathway, KEGG, Reactome, and the NCI pathway). The Holm-Bonferroni method was used for multiple testing corrections.
Whole organ transcriptome data for each organ from each mouse were analyzed as follows to obtain biological themes for individual samples from each adjuvant-administered group of three mice. […] A set of Pj genes was first defined, where eij/ei(c)>2.0. Biological themes enriched within Pj were then identified using TargetMine (Chen, Y. A. et al., PloS one 6, e17844 (2011)) (http://targetmine.mizuguchilab.org/). Tj denote the resulting list of biological themes, with associated p-values from Fischer's exact test.
Next, the biological themes called by all the individual samples in the group were scored as follows. Having obtained three lists (T1, T2 and T3) for a given experimental condition, a consensus list T of themes was created as T={(t1, p1), (t2, p2), . . . }, where ti is a biological theme that appears in all of T1, T2 and T3, and pi is the smallest of the associated p-values. Only the themes with the p-value of <0.05 were included in T.
To summarize the biological themes in T further, a list of terms considered to be associated with adjuvant activity in general was separately prepared. AT={at1, at2, . . . }, where ati is a pre-selected adjuvant-associated term (e.g., “stress” or “cytokine”). Finally, an enrichment score S for an adjuvant-associated term ati was defined as: S(ati)=Σ−log(pj), where the name of tj in T includes a term ati as a substring and pj is the associated p-value.
This scoring scheme summarizes the relative enrichment of pre-selected adjuvant-associated terms in genes responding to each adjuvant in each organ.

SMILES: Cc1ccc2c(=O)c3cccc(CC(=O)O)c3oc2c1C [DMXAA, 5,6-dimethylxanthenone-4-acetic acid]
- adjuvant group (cluster) in LV (liver (LV); hierarchical clustering): G1
- Number of gene probes with statistically significant changes (sDEGs), LV, Down (liver (LV); i.d. administration, fold change <0.667, p<0.01, customized PA call=1, 6 h after adjuvant): 101
- Number of gene probes with statistically significant changes (sDEGs), LV, Up (liver (LV); i.d. administration, fold change >1.5, p<0.01, customized PA call=1, 6 h after adjuvant): 162
- GO annotation: Cytokine-cytokine receptor interaction (Term: cytokine) ([1]; LV, ID): 0
- GO annotation: Cytokine-cytokine receptor interaction|Endocytosis (Term: cytokine) ([1]; LV, ID): 15.4
- GO annotation: I-kappaB kinase/NF-kappaB signaling (Term: NF-kappa B signaling pathway) ([1]; LV, ID): 0
- GO annotation: NF-kappa B signaling pathway (Term: NF-kappa B signaling pathway) ([1]; LV, ID): 3.77
- GO annotation: TNF signaling pathway (Term: TNF signaling pathway) ([1]; LV, ID): 10.7
- GO annotation: activation of immune response (Term: immune response) ([1]; LV, ID): 5.67
- GO annotation: activation of innate immune response (Term: innate immune response) ([1]; LV, ID): 9.24
- GO annotation: acute inflammatory response (Term: inflammatory response) ([1]; LV, ID): 0
- GO annotation: adaptive immune response (Term: adaptive immune response) ([1]; LV, ID): 0
- GO annotation: apoptotic process (Term: apoptosis) ([1]; LV, ID): 0
- GO annotation: apoptotic signaling pathway (Term: apoptosis) ([1]; LV, ID): 0
- GO annotation: cell chemotaxis (Term: chemotaxis) ([1]; LV, ID): 0
- GO annotation: cell death (Term: cell death) ([1]; LV, ID): 6.04
- GO annotation: cell migration (Term: migration) ([1]; LV, ID): 0
- GO annotation: cellular response to cytokine stimulus (Term: cytokine) ([1]; LV, ID): 16.7
- GO annotation: cellular response to interferon-alpha (Term: IFN alpha) ([1]; LV, ID): 9.3
- GO annotation: cellular response to stress (Term: stress) ([1]; LV, ID): 0
- GO annotation: chemokine production (Term: chemokine) ([1]; LV, ID): 0
- GO annotation: chemokine-mediated signaling pathway (Term: chemokine) ([1]; LV, ID): 0
- GO annotation: chemotaxis (Term: chemotaxis) ([1]; LV, ID): 0
- GO annotation: cytokine biosynthetic process (Term: cytokine) ([1]; LV, ID): 0
- GO annotation: cytokine metabolic process (Term: cytokine) ([1]; LV, ID): 0
- GO annotation: cytokine production (Term: cytokine) ([1]; LV, ID): 6.98
- GO annotation: cytokine secretion (Term: cytokine) ([1]; LV, ID): 0
- GO annotation: cytokine-mediated signaling pathway (Term: cytokine) ([1]; LV, ID): 0
- GO annotation: death (Term: cell death) ([1]; LV, ID): 0
- GO annotation: defense response (Term: defense response) ([1]; LV, ID): 48.4
- GO annotation: defense response to Gram-positive bacterium (Term: defense response) ([1]; LV, ID): 0
- GO annotation: defense response to bacterium (Term: defense response) ([1]; LV, ID): 0
- GO annotation: defense response to other organism (Term: defense response) ([1]; LV, ID): 23.6
- GO annotation: defense response to protozoan (Term: defense response) ([1]; LV, ID): 3.52
- GO annotation: defense response to virus (Term: defense response) ([1]; LV, ID): 15
- GO annotation: granulocyte chemotaxis (Term: chemotaxis) ([1]; LV, ID): 0
- GO annotation: granulocyte migration (Term: migration) ([1]; LV, ID): 0
- GO annotation: immune response (Term: immune response) ([1]; LV, ID): 25.5
- GO annotation: immune response-activating signal transduction (Term: immune response) ([1]; LV, ID): 5.98
- GO annotation: immune response-regulating signaling pathway (Term: immune response) ([1]; LV, ID): 8.39
- GO annotation: inflammatory response (Term: inflammatory response) ([1]; LV, ID): 0
- GO annotation: innate immune response (Term: innate immune response) ([1]; LV, ID): 34.9
- GO annotation: innate immune response-activating signal transduction (Term: innate immune response) ([1]; LV, ID): 7.99
- GO annotation: interferon-alpha production (Term: IFN alpha) ([1]; LV, ID): 6.81
- GO annotation: intrinsic apoptotic signaling pathway (Term: apoptosis) ([1]; LV, ID): 0
- GO annotation: leukocyte chemotaxis (Term: chemotaxis) ([1]; LV, ID): 0
- GO annotation: leukocyte migration (Term: migration) ([1]; LV, ID): 0
- GO annotation: leukocyte migration involved in inflammatory response (Term: inflammatory response) ([1]; LV, ID): 0
- GO annotation: lymphocyte chemotaxis (Term: chemotaxis) ([1]; LV, ID): 0
- GO annotation: lymphocyte migration (Term: migration) ([1]; LV, ID): 0
- GO annotation: myeloid leukocyte migration (Term: migration) ([1]; LV, ID): 0
- GO annotation: negative regulation of apoptotic process (Term: apoptosis) ([1]; LV, ID): 0
- GO annotation: negative regulation of cell death (Term: cell death) ([1]; LV, ID): 0
- GO annotation: negative regulation of cytokine production (Term: cytokine) ([1]; LV, ID): 0
- GO annotation: negative regulation of defense response (Term: defense response) ([1]; LV, ID): 0
- GO annotation: negative regulation of immune response (Term: immune response) ([1]; LV, ID): 0
- GO annotation: negative regulation of innate immune response (Term: innate immune response) ([1]; LV, ID): 0
- GO annotation: negative regulation of programmed cell death (Term: cell death) ([1]; LV, ID): 0
- GO annotation: neutrophil chemotaxis (Term: chemotaxis) ([1]; LV, ID): 0
- GO annotation: neutrophil migration (Term: migration) ([1]; LV, ID): 0
- GO annotation: positive regulation of I-kappaB kinase/NF-kappaB signaling (Term: NF-kappa B signaling pathway) ([1]; LV, ID): 0
- GO annotation: positive regulation of adaptive immune response (Term: adaptive immune response) ([1]; LV, ID): 0
- GO annotation: positive regulation of apoptotic process (Term: apoptosis) ([1]; LV, ID): 0
- GO annotation: positive regulation of cell death (Term: cell death) ([1]; LV, ID): 0
- GO annotation: positive regulation of cell migration (Term: migration) ([1]; LV, ID): 0
- GO annotation: positive regulation of chemokine production (Term: chemokine) ([1]; LV, ID): 0
- GO annotation: positive regulation of chemotaxis (Term: chemotaxis) ([1]; LV, ID): 0
- GO annotation: positive regulation of cytokine biosynthetic process (Term: cytokine) ([1]; LV, ID): 0
- GO annotation: positive regulation of cytokine production (Term: cytokine) ([1]; LV, ID): 7.86
- GO annotation: positive regulation of defense response (Term: defense response) ([1]; LV, ID): 19
- GO annotation: positive regulation of immune response (Term: immune response) ([1]; LV, ID): 10.2
- GO annotation: positive regulation of inflammatory response (Term: inflammatory response) ([1]; LV, ID): 0
- GO annotation: positive regulation of innate immune response (Term: innate immune response) ([1]; LV, ID): 12.4
- GO annotation: positive regulation of interferon-alpha production (Term: IFN alpha) ([1]; LV, ID): 7.85
- GO annotation: positive regulation of leukocyte chemotaxis (Term: chemotaxis) ([1]; LV, ID): 0
- GO annotation: positive regulation of leukocyte migration (Term: migration) ([1]; LV, ID): 0
- GO annotation: positive regulation of programmed cell death (Term: cell death) ([1]; LV, ID): 0
- GO annotation: positive regulation of response to wounding (Term: wounding) ([1]; LV, ID): 0
- GO annotation: positive regulation of tumor necrosis factor superfamily cytokine (Term: cytokine) ([1]; LV, ID): 0
- GO annotation: production of molecular mediator of immune response (Term: immune response) ([1]; LV, ID): 0
- GO annotation: programmed cell death (Term: cell death) ([1]; LV, ID): 0
- GO annotation: regulation of I-kappaB kinase/NF-kappaB signaling (Term: NF-kappa B signaling pathway) ([1]; LV, ID): 0
- GO annotation: regulation of adaptive immune response (Term: adaptive immune response) ([1]; LV, ID): 0
- GO annotation: regulation of apoptotic process (Term: apoptosis) ([1]; LV, ID): 0
- GO annotation: regulation of apoptotic signaling pathway (Term: apoptosis) ([1]; LV, ID): 0
- GO annotation: regulation of cell death (Term: cell death) ([1]; LV, ID): 0
- GO annotation: regulation of cell migration (Term: migration) ([1]; LV, ID): 0
- GO annotation: regulation of chemokine production (Term: chemokine) ([1]; LV, ID): 0
- GO annotation: regulation of chemotaxis (Term: chemotaxis) ([1]; LV, ID): 0
- GO annotation: regulation of cytokine biosynthetic process (Term: cytokine) ([1]; LV, ID): 0
- GO annotation: regulation of cytokine production (Term: cytokine) ([1]; LV, ID): 8.37
- GO annotation: regulation of defense response (Term: defense response) ([1]; LV, ID): 26.8
- GO annotation: regulation of defense response to virus (Term: defense response) ([1]; LV, ID): 0
- GO annotation: regulation of defense response to virus by host (Term: defense response) ([1]; LV, ID): 0
- GO annotation: regulation of immune response (Term: immune response) ([1]; LV, ID): 12.4
- GO annotation: regulation of inflammatory response (Term: inflammatory response) ([1]; LV, ID): 0
- GO annotation: regulation of innate immune response (Term: innate immune response) ([1]; LV, ID): 19.8
- GO annotation: regulation of interferon-alpha production (Term: IFN alpha) ([1]; LV, ID): 7.3
- GO annotation: regulation of intrinsic apoptotic signaling pathway (Term: apoptosis) ([1]; LV, ID): 0
- GO annotation: regulation of leukocyte chemotaxis (Term: chemotaxis) ([1]; LV, ID): 0
- GO annotation: regulation of leukocyte migration (Term: migration) ([1]; LV, ID): 0
- GO annotation: regulation of programmed cell death (Term: cell death) ([1]; LV, ID): 0
- GO annotation: regulation of response to stress (Term: stress) ([1]; LV, ID): 21
- GO annotation: regulation of response to wounding (Term: wounding) ([1]; LV, ID): 3.49
- GO annotation: regulation of tumor necrosis factor superfamily cytokine production (Term: cytokine) ([1]; LV, ID): 0
- GO annotation: response to cytokine (Term: cytokine) ([1]; LV, ID): 26.5
- GO annotation: response to interferon-alpha (Term: IFN alpha) ([1]; LV, ID): 11.3
- GO annotation: response to stress (Term: stress) ([1]; LV, ID): 40.4
- GO annotation: response to wounding (Term: wounding) ([1]; LV, ID): 0
- GO annotation: taxis (Term: chemotaxis) ([1]; LV, ID): 0
- GO annotation: tumor necrosis factor superfamily cytokine production (Term: cytokine) ([1]; LV, ID): 0
- IFN beta: cellular response to interferon-beta ([1]; LV, ID): 16.7
- IFN beta: interferon-beta production ([1]; LV, ID): 0
- IFN beta: positive regulation of interferon-beta production ([1]; LV, ID): 5.66
- IFN beta: regulation of interferon-beta production ([1]; LV, ID): 3.09
- IFN beta: response to interferon-beta ([1]; LV, ID): 17.9
- IFN gamma: cellular response to interferon-gamma ([1]; LV, ID): 7.37
- IFN gamma: interferon-gamma production ([1]; LV, ID): 0
- IFN gamma: regulation of interferon-gamma production ([1]; LV, ID): 0
- IFN gamma: response to interferon-gamma ([1]; LV, ID): 10.3
- interleukin-6: interleukin-6 production ([1]; LV, ID): 0
- interleukin-6: positive regulation of interleukin-6 production ([1]; LV, ID): 0
- interleukin-6: regulation of interleukin-6 production ([1]; LV, ID): 0
- interleukin-12: interleukin-12 production ([1]; LV, ID): 0
- interleukin-12: positive regulation of interleukin-12 production ([1]; LV, ID): 0
- interleukin-12: regulation of interleukin-12 production ([1]; LV, ID): 0
- GO annotation: adaptive immune response based on somatic recombination of immune receptors built from immunoglobulin superfamily domains (Term: adaptive immune response) ([1]; mouse, in vivo): 0
- GO annotation: regulation of adaptive immune response based on somatic recombination of immune receptors built from immunoglobulin superfamily domains (Term: adaptive immune response) ([1]; mouse, in vivo): 0

Source: patent US20230021483A1, “[…] […] METHOD AND CLASSIFICATION OF PHARMACEUTICAL COMPONENTS BY USING TRANSCRIPTOMES” (National Institutes of Biomedical Innovation, Health and …, priority 2016, published 2023)
